Data on 28 compounds can be found in patent US6348461B1, “6,7-asymmetrically disubstituted quinoxalinecarboxylic acid derivatives, addition salts thereof, and processes for the preparation of both” (Kyorin Pharmaceutical Co., Ltd., priority 1997, dated 2002).

One data set has as its target AMPA receptor. Nature of the data set: Binding experiment to AMPA receptor ([3H]-AMPA displacement, crude synaptosome membrane preparations). To be noted: crude synaptosome membranes from rat cerebral cortex; [3H]-AMPA 5 nM; potassium thiocyanate 100 mM; 30 minutes at 0° C.; Ki converted from IC50. Set-up: species or system rats. Here is the method:
Binding Experiment to AMPA Receptor
After the reactions were stopped by suction filtration, the radio activity on the filter was measured with liquid scintillation counter. The specific binding of [^3H]-AMPA was determined by subtracting nonspecific binding level in the presence of glutamic acid (0.1 mM) from overall binding level.

Some results are limits rather than exact numbers.

A word on the Ki: it is a measure of affinity in units of concentration, obtained from inhibition or displacement. Compound `O=C(O)c1nc2cc(Cl)c([N+](=O)[O-])cc2[nH]c1=O` [Example 5, 7-Chloro-3,4-dihydro-6-nitro-3-oxoquinoxaline-2-carboxylic Acid] displayed a Ki on AMPA receptor of 1260 nM. This lies in the single-digit micromolar range.

`O=C(O)c1nc2cc(F)c([N+](=O)[O-])cc2[nH]c1=O` [Example 6, 3,4-Dihydro-7-fluoro-6-nitro-3-oxoquinoxaline-2-carboxylic Acid] yielded a Ki on AMPA receptor of 2010 nM.

Take `O=C(O)c1nc2cc(Br)c([N+](=O)[O-])cc2[nH]c1=O` [Example 7, 7-Bromo-3,4-dihydro-6-nitro-3-oxoquinoxaline-2-carboxylic Acid]: affinity on AMPA receptor was put at a Ki of 630 nM. Compared with the last compound, the Ki is about 3.2-fold lower.

One may read the melting point as the temperature, or range, at which the solid turns liquid. Consider `Cc1cc2nc(C(=O)O)c(=O)[nH]c2cc1[N+](=O)[O-]` [Example 8, 3,4-Dihydro-7-methyl-6-nitro-3-oxoquinoxaline-2-carboxylic Acid], for which the melting point lay within 239 to 242 °C. This compound also came in with an inhibition constant (Ki) at AMPA receptor of 330 nM.

`O=C(O)c1nc2cc(N3CCOCC3)c([N+](=O)[O-])cc2[nH]c1=O` [Example 35, 3,4-Dihydro-7-morpholino-6-nitro-3-oxoquinoxaline-2-carboxylic Acid] displayed a melting point of 213.5 to 214.5 °C. In addition, the Ki at AMPA receptor came out at 2040 nM.

Turning to `O=C(O)c1nc2cc(-n3ccnc3)c([N+](=O)[O-])cc2[nH]c1=O` [Example 36, 3,4-Dihydro-7-(imidazole-1-yl)-6-nitro-3-oxoquinoxaline-2-carboxylic Acid], the melting point was > 300 °C. For the same compound, the Ki on AMPA receptor came to 450 nM.

`O=C(O)c1nc2cc(-n3ccc(=O)cc3)c([N+](=O)[O-])cc2[nH]c1=O` [Example 37, 3,4-Dihydro-6-nitro-3-oxo-7-(4-pyridone-1-yl)quinoxaline-2-carboxylic Acid] registered a melting point of 283 to 285 °C. The Ki at AMPA receptor was 330 nM.

Regarding `CN(C)c1cc2nc(C(=O)O)c(=O)[nH]c2cc1[N+](=O)[O-]` [Example 39, 3,4-Dihydro-7-dimethylamino-6-nitro-3-oxoquinoxaline-2-carboxylic Acid], the Ki on AMPA receptor was found to be 910 nM.

On to `O=C(O)c1nc2cc(Oc3ccccc3)c([N+](=O)[O-])cc2[nH]c1=O` [Example 62, 3,4-Dihydro-6-nitro-3-oxo-7-phenoxyquinoxaline-2-carboxylic Acid], for which the melting point is 154 to 156 °C (dec.). Further, the Ki at AMPA receptor came out at 860 nM.

Consider `Cl.O=C(O)c1nc2cc(Cn3ccnc3)c([N+](=O)[O-])cc2[nH]c1=O` [Example 66, 3,4-Dihydro-7-(imidazole-1-yl)methyl-6-nitro-3-oxoquinoxaline-2-carboxylic Acid Hydrochloride], for which the melting point is > 300 °C. At AMPA receptor, this compound returned a Ki of 360 nM.

On to `O=C(Nc1ccccc1F)OCc1cn(-c2cc3nc(C(=O)O)c(=O)[nH]c3cc2[N+](=O)[O-])cn1` [Example 96], for which the melting point was 251 to 253 °C (dec.). At AMPA receptor, the Ki was determined as 28.2 nM.

In the case of `O=C(Nc1ccccc1C(F)(F)F)OCc1cn(-c2cc3nc(C(=O)O)c(=O)[nH]c3cc2[N+](=O)[O-])cn1` [Example 101], the melting point was 230 to 232 °C (dec.). The compound further displayed a Ki on AMPA receptor of 32.3 nM.

As for `O=C(Nc1ccccc1)OCc1cn(-c2cc3nc(C(=O)O)c(=O)[nH]c3cc2[N+](=O)[O-])ccc1=O` [Example 121, 3,4-Dihydro-6-nitro-3-oxo-7-(3-((N-phenylcarbamoyloxy)methyl)-4-pyridone-1-yl)quinoxaline-2-carboxylic Acid], the melting point is 230 to 232 °C (dec.). For the same compound, on AMPA receptor, the affinity corresponds to a Ki of 172 nM.

In the case of `O=C(Nc1cccc(Br)c1)OCc1cn(-c2cc3nc(C(=O)O)c(=O)[nH]c3cc2[N+](=O)[O-])ccc1=O` [Example 123], the melting point is 199 to 201 °C (dec.). Moreover, at AMPA receptor, the Ki came out at 48.1 nM.

`Nc1cc2nc(C(=O)O)c(=O)[nH]c2cc1[N+](=O)[O-]` [Example 157, 7-Amino-3,4-dihydro-6-nitro-3-oxoquinoxaline-2-carboxylic Acid] returned a melting point of 300 °C.

In the case of `Cn1c(=O)c(C(=O)O)nc2cc(F)c([N+](=O)[O-])cc21` [Example 162, 3,4-Dihydro-7-fluoro-4-methyl-6-nitro-3-oxoquinoxaline-2-carboxylic Acid], the melting point is 173 to 175 °C.

Turning to `O=C(O)c1nc2cc(C(F)(F)F)c([N+](=O)[O-])cc2[nH]c1=O` [Example 163, 3,4-Dihydro-6-nitro-3-oxo-7-trifluoromethylquinoxaline-2-carboxylic Acid], the melting point was 213 to 215 °C (dec.).

`Nc1cc2nc(C(=O)O)c(=O)[nH]c2cc1C(F)(F)F` [Example 164, 7-Amino-3,4-dihydro-3-oxo-6-trifluoromethylquinoxaline-2-carboxylic Acid]: the melting point was 218 to 220 °C (dec.).

Turning to `O=C(O)c1nc2cc(-n3ccnc3)c(C(F)(F)F)cc2[nH]c1=O` [Example 168, 3,4-Dihydro-7-imidazolyl-3-oxo-6-trifluoromethylquinoxaline-2-carboxylic Acid], the melting point was 232 to 234 °C (dec.).

Regarding `O=C(O)c1nc2cc(-n3ccc(=O)cc3)c(C(F)(F)F)cc2[nH]c1=O` [Example 169, 3,4-Dihydro-3-oxo-7-(4-pyridone-1-yl)-6-trifluoro-methylquinoxaline-2-carboxylic Acid], the melting point stood at 300 °C.

Turning to `O=C(NCc1ccn(-c2cc3nc(C(=O)O)c(=O)[nH]c3cc2C(F)(F)F)c1)Nc1ccc(Br)cc1` [Example 185, 7-(3-(((4-Bromophenyl)aminocarbonylamino)methyl)pyrrole-1-yl)-3,4-dihydro-3-oxo-6-trifluoromethylquinoxaline-2-carboxylic Acid], the melting point is 196 to 198 °C (dec.).

Consider `O=C(NCc1ccn(-c2cc3nc(C(=O)O)c(=O)[nH]c3cc2C(F)(F)F)c1)Nc1cccc(C(=O)O)c1` [Example 187, 7-(3-(((3-Carboxyphenyl)aminocarbonylamino)methyl)pyrrole-1-yl)-3,4-dihydro-3-oxo-6-trifluoromethylquinoxaline-2-carboxylic Acid], for which the melting point came to 300 °C.

With `O=C(NCc1ccn(-c2cc3nc(C(=O)O)c(=O)[nH]c3cc2C(F)(F)F)c1)Nc1ccccc1` [Example 188, 3,4-Dihydro-3-oxo-7-(3-((phenylaminocarbonylamino)methyl)pyrrole-1-yl)-6-trifluoromethylquinoxaline-2-carboxylic Acid], the melting point is > 300 °C.

In the case of `O=C(Nc1ccccc1)OCc1cn(-c2cc3nc(C(=O)O)c(=O)[nH]c3cc2C(F)(F)F)cn1` [Example 235, 3,4-Dihydro-3-oxo-7-((4-(N-phenylcarbamoyloxy)methyl)imidazole-1-yl)-6-trifluoromethylquinoxaline-2-carboxylic Acid], the melting point was 193 to 195 °C (dec.).

As to `CCOC(=O)c1ccc(NC(=O)OCc2cn(-c3cc4nc(C(=O)O)c(=O)[nH]c4cc3[N+](=O)[O-])cn2)cc1` [Example 278, 3,4-Dihydro-7-(4-((N-(4-ethoxycarbonylphenyl)carbamoyloxy)methyl)imidazolyl)-6-nitro-3-oxoquinoxaline-2-carboxylic Acid], the melting point is 207 to 209 °C (dec.).

As for `O=C(O)Cc1cn(-c2cc3nc(C(=O)O)c(=O)[nH]c3cc2[N+](=O)[O-])cn1` [Example 303, 7-(4-(Carboxymethyl)imidazolyl)-3,4-dihydro-6-nitro-3-oxoquinoxaline-2-carboxylic Acid], the melting point is > 300 °C.

For `CCOC(=O)c1ccc(NC(=O)OCc2cn(-c3cc4nc(C(=O)O)c(=O)[nH]c4cc3[N+](=O)[O-])ccc2=O)cc1` [Example 306, 7-(3-((N-(4-Ethoxycarbonylphenyl)carbamoyloxy)methyl)-4-pyridone-1-yl)-3,4-dihydro-6-nitro-3-oxoquinoxaline-2-carboxylic Acid], the melting point is 201 to 203 °C (dec.).

With `O=C(Nc1ccc(C(=O)O)cc1)OCc1cn(-c2cc3nc(C(=O)O)c(=O)[nH]c3cc2[N+](=O)[O-])ccc1=O` [Example 307, 7-(3-((N-(4-Carboxyphenyl)carbamoyloxy)methyl)-4-pyridone-1-yl)-3,4-dihydro-6-nitro-3-oxoquinoxaline-2-carboxylic Acid], the melting point was 231 to 233 °C (dec.).
